Where two headings read alike, the source gives them in different places.
System: HeLa cells
Assay: Proliferation assay, crystal violet staining
Conditions: Homo sapiens, 96 h
[1] = read-out: Inhibition of HeLa cell proliferation, HeLa cells, 4 days incubation

Structure (SMILES)	IC50 [1]	IC50 (read-out: Inhibition of HeLa cell proliferation)
C[C@H]1CN(c2cc(N3CCOCC3)nc3c(-c4ccn[nH]4)nccc23)CCO1 [Example 170, 4-[(2S)-2-methylmorpholin-4-yl]-2-(morpholin-4-yl)-8-(1H-pyrazol-5-yl)-1,7-naphthyridine]	2.41 µM	–
COc1ccc(Sc2cc(N3CCOCC3)nc3c(-c4ccn[nH]4)nccc23)cc1 [Example 213, 4-[(4-methoxyphenyl)sulfanyl]-2-(morpholin-4-yl)-8-(1H-pyrazol-5-yl)-1,7-naphthyridine]	> 3 µM	–
c1cc(-c2nccc3c(N4C[C@@H]5C[C@H]4CO5)cc(N4CCOCC4)nc23)[nH]n1 [Example 185, 2-(morpholin-4-yl)-4-[(1S,4S)-2-oxa-5-azabicyclo[2.2.1]hept-5-yl]-8-(1H-pyrazol-5-yl)-1,7-naphthyridine]	> 3 µM	–
CCOP(=O)(CC(C)C)c1cc(N2CCOC[C@H]2C)nc2c(-c3ccn[nH]3)nccc12 (stereo partly drawn) [Example 144, ethyl isobutyl{2-[(3R)-3-methylmorpholin-4-yl]-8-(1H-pyrazol-5-yl)-1,7-naphthyridin-4-yl}phosphinate]	–	> 3 µM
C[C@@H]1COCCN1c1cc(-c2ccc(N3CCCC3)cc2F)c2ccnc(-c3ccn[nH]3)c2n1 [Example 134, 4-[2-fluoro-4-(pyrrolidin-1-yl)phenyl]-2-[(3R)-3-methylmorpholin-4-yl]-8-(1H-pyrazol-5-yl)-1,7-naphthyridine]	1.53 µM	–
O=C(NC1CC1)c1cccc(-c2cc(N3CCOCC3)nc3c(-c4ccn[nH]4)nccc23)c1 [Example 330, N-cyclopropyl-3-[2-(morpholin-4-yl)-8-(1H-pyrazol-5-yl)-1,7-naphthyridin-4-yl]benzamide]	> 3 µM	–
CS(=O)(=O)c1ccc(-c2cc(N3CCOCC3)nc3c(-c4ccn[nH]4)nccc23)cn1 [Example 3, 4-[6-(methylsulfonyl)pyridin-3-yl]-2-(morpholin-4-yl)-8-(1H-pyrazol-5-yl)-1,7-naphthyridine]	2.77 µM	–
Cc1ccncc1-c1cc(N2CCOCC2)nc2c(-c3ccn[nH]3)nccc12 [Example 292, 4-(4-methylpyridin-3-yl)-2-(morpholin-4-yl)-8-(1H-pyrazol-5-yl)-1,7-naphthyridine]	2.64 µM	–
Oc1cccc(-c2cc(N3CCOCC3)nc3c(-c4ccn[nH]4)nccc23)c1 [Example 337, 3-[2-(morpholin-4-yl)-8-(1H-pyrazol-5-yl)-1,7-naphthyridin-4-yl]phenol]	1.71 µM	–
C[C@@H]1CN(c2cc(N3CCOCC3)nc3c(-c4ccn[nH]4)nccc23)CCO1 [Example 162, 4-[(2R)-2-methylmorpholin-4-yl]-2-(morpholin-4-yl)-8-(1H-pyrazol-5-yl)-1,7-naphthyridine]	1.22 µM	–
CS(=O)(=O)Nc1ccc(-c2cc(N3CCOCC3)nc3c(-c4ccn[nH]4)nccc23)cc1 [Example 323, N-{4-[2-(morpholin-4-yl)-8-(1H-pyrazol-5-yl)-1,7-naphthyridin-4-yl]phenyl}methanesulfonamide]	2.22 µM	–
C[C@@H]1CN[C@@H](C)CN1c1cc(N2CCOCC2)nc2c(-c3ccn[nH]3)nccc12 (relative stereo) [Example 178, 4-[(trans)-2,5-dimethylpiperazin-1-yl]-2-(morpholin-4-yl)-8-(1H-pyrazol-5-yl)-1,7-naphthyridine]	> 3 µM	–

Further lines, with some results ahead:

IC50 [1]	Structure (SMILES)	IC50 (read-out: Inhibition of HeLa cell proliferation)
0.254 µM	C[C@@H]1COCCN1c1cc(-c2ccccc2F)c2ccnc(-c3ccn[nH]3)c2n1 [Example 77, 4-(2-fluorophenyl)-2-[(3R)-3-methylmorpholin-4-yl]-8-(1H-pyrazol-5-yl)-1,7-naphthyridine]	–
0.374 µM	C[C@@H]1COCCN1c1cc(-c2cncc(Cl)c2)c2ccnc(-c3ccn[nH]3)c2n1 [Example 130, 4-(5-chloropyridin-3-yl)-2-[(3R)-3-methylmorpholin-4-yl]-8-(1H-pyrazol-5-yl)-1,7-naphthyridine]	–
0.259 µM	CC(C)C(C)(O)c1cc(N2CCOC[C@H]2C)nc2c(-c3ccn[nH]3)nccc12 (stereo partly drawn) [Example 281, 3-methyl-2-{2-[(3R)-3-methylmorpholin-4-yl]-8-(1H-pyrazol-5-yl)-1,7-naphthyridin-4-yl}butan-2-ol]	–
0.168 µM	C[C@@H]1COCCN1c1cc(N=S(C)(=O)C(C)(C)C)c2ccnc(-c3ccn[nH]3)c2n1 (stereo partly drawn) [Example 278, 4-{[tert-butyl(methyl)oxido-λ^6-sulfanylidene]amino}-2-[(3R)-3-methylmorpholin-4-yl]-8-(1H-pyrazol-5-yl]-1,7-naphthyridine]	–
0.811 µM	C[C@@H]1COCCN1c1cc(C2=CCCN(C)C2)c2ccnc(-c3ccn[nH]3)c2n1 [Example 242, 2-[(3R)-3-methylmorpholin-4-yl]-4-(1-methyl-1,2,5,6-tetrahydropyridin-3-yl)-8-(1H-pyrazol-5-yl)-1,7-naphthyridine]	–
0.77 µM	C[C@@H]1COCCN1c1cc(C(C)(C)O)c2ccnc(-c3ccn[nH]3)c2n1 [Example 128, 2-{2-[(3R)-3-methylmorpholin-4-yl]-8-(1H-pyrazol-5-yl)-1,7-naphthyridin-4-yl}propan-2-ol]	–
0.116 µM	Cc1c(-c2cc(N3CCOC[C@H]3C)nc3c(-c4ccn[nH]4)nccc23)cnn1C [Example 250, 4-(1,5-dimethyl-1H-pyrazol-4-yl)-2-[(3R)-3-methylmorpholin-4-yl]-8-(1H-pyrazol-5-yl)-1,7-naphthyridine]	–
0.456 µM	C[C@@H]1COCCN1c1cc(C2=CCSCC2)c2ccnc(-c3ccn[nH]3)c2n1 [Example 108, 4-(3,6-dihydro-2H-thiopyran-4-yl)-2-[(3R)-3-methylmorpholin-4-yl]-8-(1H-pyrazol-5-yl)-1,7-naphthyridine]	–
0.332 µM	CC(C)n1ccc(-c2cc(N3CCOC[C@H]3C)nc3c(-c4ccn[nH]4)nccc23)n1 [Example 263, 2-[(3R)-3-methylmorpholin-4-yl]-4-[1-(propan-2-yl)-1H-pyrazol-3-yl]-8-(1H-pyrazol-5-yl)-1,7-naphthyridine]	–
0.892 µM	C[C@@H]1COCCN1c1cc(-c2[nH]nnc2C2CC2)c2ccnc(-c3ccn[nH]3)c2n1 [Example 194, 4-(4-cyclopropyl-1H-1,2,3-triazol-5-yl)-2-[(3R)-3-methylmorpholin-4-yl]-8-(1H-pyrazol-5-yl)-1,7-naphthyridine]	–
0.95 µM	COc1ccsc1-c1cc(N2CCOC[C@H]2C)nc2c(-c3ccn[nH]3)nccc12 [Example 235, 4-(3-methoxythiophen-2-yl)-2-[(3R)-3-methylmorpholin-4-yl]-8-(1H-pyrazol-5-yl)-1,7-naphthyridine]	–
0.405 µM	C[C@@H]1COCCN1c1cc(-c2cn[nH]c2)c2ccnc(-c3ccn[nH]3)c2n1 [Example 269, 2-[(3R)-3-methylmorpholin-4-yl]-4-(1H-pyrazol-4-yl)-8-(1H-pyrazol-5-yl)-1,7-naphthyridine]	–
0.497 µM	C[C@@H]1COCCN1c1cc(-c2cn(C)nc2C(F)(F)F)c2ccnc(-c3ccn[nH]3)c2n1 [Example 259, 2-[(3R)-3-methylmorpholin-4-yl]-4-[1-methyl-3-(trifluoromethyl)-1H-pyrazol-4-yl]-8-(1H-pyrazol-5-yl)-1,7-naphthyridine]	–
0.154 µM	Cc1n[nH]cc1-c1cc(N2CCOC[C@H]2C)nc2c(-c3ccn[nH]3)nccc12 [Example 266, 2-[(3R)-3-methylmorpholin-4-yl]-4-(3-methyl-1H-pyrazol-4-yl)-8-(1H-pyrazol-5-yl)-1,7-naphthyridine]	–
